Molecules are shown by their SMILES.

In one experiment the target is T1, human CCR6 (Homo sapiens, UniProt P51684).
T1 sequence (P51684 1-374): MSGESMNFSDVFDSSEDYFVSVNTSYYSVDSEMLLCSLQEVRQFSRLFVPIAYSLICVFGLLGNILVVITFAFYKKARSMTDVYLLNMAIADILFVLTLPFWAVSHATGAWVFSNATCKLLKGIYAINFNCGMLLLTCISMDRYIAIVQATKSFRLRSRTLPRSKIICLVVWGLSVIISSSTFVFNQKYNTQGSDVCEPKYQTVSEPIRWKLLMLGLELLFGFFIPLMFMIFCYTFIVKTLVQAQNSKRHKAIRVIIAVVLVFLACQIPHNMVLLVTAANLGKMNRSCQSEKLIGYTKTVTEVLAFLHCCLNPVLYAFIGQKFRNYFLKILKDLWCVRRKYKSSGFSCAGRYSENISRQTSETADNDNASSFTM
In words: Human CCR6-CRE reporter assay. Type of experiment: cell-based. The arrangement: The second construct contained the open reading frame of human CCR6 in the pUNO1 backbone; host or cells: 293FT cells (transient transfection with TransIT-293). The conditions noted are these: 293FT cells transfected with human CCR6 and CRE-luciferase; Forskolin + CCL20, 5 h; relative Log IC50; read-out: CCR6-CRE reporter (converted). As to the method:
293FT cells were transfected with 2 constructs using TransIT-293 (Mirus). The first construct (pGL4.29, Promega) expressed the luciferase reporter gene luc2P in response to the binding of cAMP-induced CREB to the CREelement in its promoter. The second construct contained the open reading frame of human CCR6 in the pUNO1 backbone under the control of an enhanced CMV promoter(InVivoGen).48 h after transfection, cells were harvested and diluted to 750,000 cells/ml in culture medium (DMEM, 10% FBS, 1× pen/strep(Gibco 15140)). Compounds were 2.5-fold serially diluted in DMSO. Further dilutions were made in assay medium (DMEM, 10% FBS, 1× pen/strep, 6 μM Forskolin, 6 nM CCL20). 4 μl of the compound solution was added to a white MW384 plate, followed by […] of the cell suspension. Final DMSO concentration in the assay was 0.1%. The MW384 plate was placed in an incubator at 37° C., 5% CO2 for 5 h. Luciferase activity was determined by addition of 24 μl of a 2.5× diluted BriteLite luciferase solution(Perkin Elmer), followed by luminescence measurement using a VICTOR Plate reader (Perkin Elmer). […] The relative Log IC50 was determined with GraphPad Prism 9 using a four-parameter dose-response model.
(In a reporter assay the amount or activity of a reporter protein is the signal.)
For the compound `N=S(=O)(c1ccc(-c2ccc3nccn3c2)cc1)[C@H]1CC[C@H](Nc2ccc(OC(F)(F)F)cn2)CC1` (stereo partly drawn) [Example 54, (4-{imidazo[1,2-a]pyridin-6-yl}phenyl)[trans-4-{[5-(trifluoromethoxy)pyridin-2-yl]Amino}cyclohexyl](imino)-λ^6-sulfanone], the IC50 is 631 nM.

For the compound `CC(C)c1nnc2ccc(-c3ccc(S(=O)(=O)N4CCC(Nc5ccc(OC(F)(F)F)cn5)CC4)cc3)cn12` [Example 56, N-(1-{4-[3-(propan-2-yl)-[1,2,4]triazolo[4,3-a]pyridin-6-yl]benzenesulfonyl}piperidin-4-yl)-5-(trifluoromethoxy)pyridin-2-amine], the IC50 was 31.6 nM.

For `N#Cc1ccc(-c2ccc(S(=O)(=O)[C@H]3CC[C@H](Nc4ccc(OC(F)(F)F)cc4)CC3)cc2)cc1` [Example 39, 4′-{[trans-4-{[4-(trifluoromethoxy)phenyl]Amino}cyclohexyl]sulfonyl}-[1,1′-biphenyl]-4-carbonitrile], the IC50 is 100 nM.

`NC(=O)c1cccc(-c2ccc(S(=O)(=O)N3CCC(Nc4ccc(OC(F)(F)F)cn4)CC3)cc2)c1` [Example 9, 4′-[(4-{[5-(trifluoromethoxy)pyridin-2-yl]Amino}piperidin-1-yl)sulfonyl]-[1,1′-biphenyl]-3-carboxamide]: the IC50 was 79.4 nM.

`COCc1nnc2ccc(-c3ccc(S(=O)(=O)N4CCC(Nc5ccc(OC(F)(F)F)cc5)CC4)cc3)cn12` [Example 22, 1-{4-[3-(methoxymethyl)-[1,2,4]triazolo[4,3-a]pyridin-6-yl]benzenesulfonyl}-N-[4-(trifluoromethoxy)phenyl]piperidin-4-amine]: the IC50 was 251 nM.

For `CC(C)c1cnc2ccc(-c3ccc(S(=O)(=O)N4CCC(Nc5ccc(SC(F)(F)F)cc5)CC4)cc3)cn12` [Example 31, 1-{4-[3-(propan-2-yl)imidazo[1,2-a]pyridin-6-yl]benzenesulfonyl}-N-{4-[(trifluoromethyl)sulfanyl]phenyl}piperidin-4-amine], the IC50 was 50.1 nM.

Consider `O=c1[nH]nc2ccc(-c3ccc(S(=O)(=O)[C@H]4CC[C@H](Nc5ccc(SC(F)(F)F)cc5)CC4)cc3)cn12` [Example 50, 6-(4-{[trans-4-({4-[(trifluoromethyl)sulfanyl]phenyl}Amino)cyclohexyl]sulfonyl}phenyl)-2H,3H-[1,2,4]triazolo[4,3-a]pyridin-3-one], for which the IC50 is 79.4 nM.

As for `O=C1NCc2ccc(-c3ccc(S(=O)(=O)N4CCC(Nc5cccc(OC(F)(F)F)c5)CC4)cc3)cc21` [Example 10, 6-{4-[(4-{[3-(trifluoromethoxy)phenyl]Amino}piperidin-1-yl)sulfonyl]phenyl}-2,3-dihydro-1H-isoindol-1-one], the IC50 was 3160 nM.

Regarding `NC(=O)c1cccc(-c2ccc(S(=O)(=O)N3CCC(Nc4ccc(OC(F)(F)F)cc4)CC3)cc2)c1` [Example 5, 4′-[(4-{[4-(trifluoromethoxy)phenyl]Amino}piperidin-1-yl)sulfonyl]-[1,1′-biphenyl]-3-carboxamide], the IC50 is 126 nM.

`CC1CC(Nc2ccc(OC(F)(F)F)cc2)CCN1S(=O)(=O)c1ccc(-c2ccccc2)cc1` (stereo not shown) [Example 35, 1-{[1,1′-biphenyl]-4-sulfonyl}-2-methyl-N-[4-(trifluoromethoxy)phenyl]piperidin-4-amine]: the IC50 is 2510 nM.

Turning to `N#Cc1ccc(-c2ccc(S(=O)(=O)N3CCC(Nc4cccc(OC(F)F)c4)CC3)cc2)cc1` [Example 2, 4′-[(4-{[3-(difluoromethoxy)phenyl]Amino}piperidin-1-yl)sulfonyl]-[1,1′-biphenyl]-4-carbonitrile], the IC50 was 398 nM.

For the compound `NC(=O)c1cc(-c2ccc(S(=O)(=O)[C@H]3CC[C@H](Nc4ccc(SC(F)(F)F)cc4)CC3)cc2)ccn1` [Example 49, 4-(4-{[trans-4-({4-[(trifluoromethyl)sulfanyl]phenyl}Amino)cyclohexyl]sulfonyl}phenyl)pyridine-2-carboxamide], the IC50 is 63.1 nM.

With `CC(C)c1cnc2ccc(-c3ccc(S(=O)(=O)N4CCC(Nc5ccc(SC(F)(F)F)cn5)CC4)cc3)cn12` [Example 64, N-(1-{4-[3-(propan-2-yl)imidazo[1,2-a]pyridin-6-yl]benzenesulfonyl}piperidin-4-yl)-5-[(trifluoromethyl)sulfanyl]pyridin-2-amine], the IC50 is 39.8 nM.

Regarding `O=S(=O)(c1ccc(-c2ccc3nccn3c2)cc1)[C@H]1CC[C@H](Nc2ccc(SC(F)(F)F)cc2)CC1` [Example 45, N-[trans-4-(4-{imidazo[1,2-a]pyridin-6-yl}benzenesulfonyl)cyclohexyl]-4-[(trifluoromethyl)sulfanyl]aniline], the IC50 was 79.4 nM.

With `N#Cc1ccc(-c2ccc(S(=O)(=O)[C@H]3CC[C@H](Nc4cccc(OC(F)(F)F)c4)CC3)cc2)cc1` [Example 40, 4′-{[trans-4-{[3-(trifluoromethoxy)phenyl]Amino}cyclohexyl]sulfonyl}-[1,1′-biphenyl]-4-carbonitrile], the IC50 is 398 nM.

With `N=S(=O)(c1ccc(-c2ccc3n[nH]c(=O)n3c2)cc1)[C@H]1CC[C@H](Nc2ccc(SC(F)(F)F)cc2)CC1` (stereo partly drawn) [Example 53, 6-(4-{[trans-4-({4-[(trifluoromethyl)sulfanyl]phenyl}Amino)cyclohexyl]sulfonimidoyl}phenyl)-2H,3H-[1,2,4]triazolo[4,3-a]pyridin-3-one], the IC50 is 316 nM.

Turning to `O=S(=O)(c1ccc(-c2ccccc2)cc1)N1CCC(Nc2ccc(OC(F)F)cc2)CC1` [Example 26, 1-{[1,1′-biphenyl]-4-sulfonyl}-N-[4-(difluoromethoxy)phenyl]piperidin-4-amine], the IC50 was 501 nM.

On to `CC(C)c1cnc2ccc(-c3ccc(S(=O)(=O)[C@H]4CC[C@H](Nc5cccc(SC(F)(F)F)c5)CC4)cc3)cn12` [Example 47, N-[trans-4-{4-[3-(propan-2-yl)imidazo[1,2-a]pyridin-6-yl]benzenesulfonyl}cyclohexyl]-3-[(trifluoromethyl)sulfanyl]aniline], for which the IC50 was 100 nM.

`Cc1cc(-c2ccc(S(=O)(=O)[C@H]3CC[C@H](Nc4ccc(SC(F)(F)F)cc4)CC3)cc2)cn2c(C(C)C)cnc12` [Example 48, N-[trans-4-{4-[8-methyl-3-(propan-2-yl)imidazo[1,2-a]pyridin-6-yl]benzenesulfonyl}cyclohexyl]-4-[(trifluoromethyl)sulfanyl]aniline]: the IC50 was 79.4 nM.

Turning to `O=S(=O)(c1ccc(-c2ccc3nccn3c2)cc1)[C@H]1CC[C@H](Nc2ccc(OC(F)(F)F)cn2)CC1` [Example 73, N-[trans-4-(4-{imidazo[1,2-a]pyridin-6-yl}benzenesulfonyl)cyclohexyl]-5-(trifluoromethoxy)pyridin-2-amine], the IC50 was 126 nM.

In the case of `Cc1cnc2ccc(-c3ccc(S(=O)(=O)N4CCC(Nc5ccc(OC(F)(F)F)cc5)CC4)cc3)cn12` [Example 16, 1-(4-{3-methylimidazo[1,2-a]pyridin-6-yl}benzenesulfonyl)-N-[4-(trifluoromethoxy)phenyl]piperidin-4-amine], the IC50 was 79.4 nM.

As to `N=S(=O)(c1ccc(-c2ccc3nccn3c2)cc1)[C@H]1CC[C@H](Nc2ccc(SC(F)(F)F)cc2)CC1` (stereo partly drawn) [Example 52, (4-{imidazo[1,2-a]pyridin-6-yl}phenyl)[trans-4-({4-[(trifluoromethyl)sulfanyl]phenyl}Amino)cyclohexyl](imino)-λ^6-sulfanone], the IC50 was 158 nM.

Turning to `Cc1cc(-c2ccc(S(=O)(=O)N3CCC(Nc4cc(OC(F)(F)F)ccn4)CC3)cc2)cn2c(C(C)C)cnc12` [Example 69, N-(1-{4-[8-methyl-3-(propan-2-yl)imidazo[1,2-a]pyridin-6-yl]benzenesulfonyl}piperidin-4-yl)-4-(trifluoromethoxy)pyridin-2-amine], the IC50 is 1260 nM.

The experiment is the same for the next values; noted with them: scaffold variant X = O, R1 = CF3; read-out: Activity in human CCR6-CRE reporter assay.
In the case of `O=S(=O)(c1ccc(-c2ccc3nccn3c2)cc1)N1CCC(Nc2ccc(OC(F)(F)F)cn2)CC1` [Example 12, N-[1-(4-{imidazo[1,2-a]pyridin-6-yl}benzenesulfonyl)piperidin-4-yl]-5-(trifluoromethoxy)pyridin-2-amine], the IC50 turned out to be 150 nM.

The experiment is the same for the next values; noted with them: scaffold variant X = S, R1 = CF3; read-out: Activity in human CCR6-CRE reporter assay.
Regarding `O=S(=O)(c1ccc(-c2ccc3nccn3c2)cc1)N1CCC(Nc2ccc(SC(F)(F)F)cn2)CC1` [Example 62, N-[1-(4-{imidazo[1,2-a]pyridin-6-yl}benzenesulfonyl)piperidin-4-yl]-5-[(trifluoromethyl)sulfanyl]pyridin-2-amine], the IC50 came out at 50 nM.

These data come from patent US20250353859A1, “COMPOUNDS AS CCR6 INHIBITORS” (Hoffmann-La Roche Inc., priority 2023, published 2025).
